Structures can show the parent of a compound that is named as a salt. Where two headings read alike, the source gives them in different places.
Key:
[1] = molecular target: T1, aromatase (Rattus norvegicus, UniProt P22443); assay: Aromatase inhibition in the rat ovarian microsome assay; assay type: biochemical
T1 construct: ovarian microsomes are obtained from rats treated with pregnant mares serum gonadotropin; from tissue; host or cells: ovarian microsomes from rats treated with pregnant mares serum gonadotropin
T1 sequence (P22443 1-508): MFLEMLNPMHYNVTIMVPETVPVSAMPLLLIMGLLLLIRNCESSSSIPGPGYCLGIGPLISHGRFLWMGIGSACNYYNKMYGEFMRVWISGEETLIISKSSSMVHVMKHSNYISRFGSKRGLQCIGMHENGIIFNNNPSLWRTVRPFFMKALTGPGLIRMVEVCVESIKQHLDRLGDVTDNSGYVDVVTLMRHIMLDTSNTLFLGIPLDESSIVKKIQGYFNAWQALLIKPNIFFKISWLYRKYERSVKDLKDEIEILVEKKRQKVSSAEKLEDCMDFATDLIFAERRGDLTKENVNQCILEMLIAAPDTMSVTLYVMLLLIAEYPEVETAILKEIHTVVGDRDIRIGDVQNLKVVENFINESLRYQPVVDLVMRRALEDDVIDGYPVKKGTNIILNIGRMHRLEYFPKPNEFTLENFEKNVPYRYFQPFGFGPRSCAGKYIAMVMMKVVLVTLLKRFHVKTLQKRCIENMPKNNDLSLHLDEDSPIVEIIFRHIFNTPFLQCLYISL
Experimental: In this test system, ovarian microsomes are obtained from rats treated with pregnant mares serum gonadotropin. Test compounds are added to reaction vials containing 0.1 μM 4-androstene-3,17-dione, 100,000 dpm 1,2[^3 H]-androstenedione, the microsomes and a NADPH generating system. The concentrations of the inhibitors tested ranged between 0.005 and 10 μM.

[2] = system: breast cancer; details: Cancer Research, Vol. 42, Suppl. 8:3261s (1982); cited from earlier work
[3] = system: aromatization; assay: Estrogen synthesis inhibition in rats: uterine weight; assay type: in vivo, rat (immature female Wistar); details: 7 days, testosterone propionate treated
Experimental: (§1) Immature female Wistar rats (45-55 grams) were divided into control and test groups of 4-8 animals each. Test compounds were administered for seven days as a component of the diet. Control animals received diet without the test compound. Beginning on the fourth day of the test, all animals treated with the test compound and one half of the control animals were given a subcutaneous injection of 1.0 mg of testosterone propionate in corn oil. The remaining control animals received only an equivalent volume of corn oil. On the seventh day of the test, rats treated with testosterone propionate were injected subcutaneously with 100 μCi of [^3 H]-testosterone in 50 μl of 3:1 (v/v) saline-ethanol.
After two hours, the animals were killed by decapitation. Uteri were isolated, trimmed of extraneous connective tissue, and weighed. […] In the control animals treated with testosterone propionate, estrogens produced by aromatization stimulated the uterus resulting in an increase in weight.

[4] = system: DMBA-induced mammary tumors; assay: DMBA-induced mammary tumor inhibition; assay type: in vivo, rat (female Sprague-Dawley); details: Test I, 20 mg/kg, once daily by gavage in corn oil
Experimental: Mammary tumors were produced in female Sprague-Dawley rats which were 50-60 days old by the gavage administration of 20 mg of 7,12-dimethylbenz[α]anthracene (DMBA). About six weeks after DMBA administration, the mammary glands were palpated at weekly intervals for the appearance of tumors. Whenever one or more tumors appeared and were measurable in an animal, that animal was selected for experimentation. […] Each control and test group contained 8 animals. The test compound was administered in corn oil and administered once daily by gavage.
Every experiment included a group of control rats having tumors that were given corn oil vehicle by gavage. […] The area of each tumor was calculated by multiplying the shortest and longest diameters of the tumor. The treatment and measurement of animals continued for five weeks at which time the final areas of the tumors were determined. The change in the mean tumor area was determined, and the means change was analyzed for its significance using Dunnett's t-test.

[5] = system: aromatization; assay: Estrogen synthesis inhibition in rats: ovarian steroid concentrations; assay type: in vivo, rat (immature female Wistar); details: ovary, 7 days
Experimental: as §1
Ovaries from rats treated with [^3 H]-testosterone were excised, cleaned of extraneous tissue, and homogenized in 2.5 ml of a 1.0 mM potassium phosphate buffer containing 3.0 mM MgCl2.6H2 O, 320 mM sucrose, and 0.25% Triton X-100 (polyethylene glycol p-isooctyl phenyl ether, Rohm and Hass) at pH 6.5. The ovarian steroids were extracted with 1.5 ml of 9:1 (v/v) toluene/ethanol to which had been added 25 to 100 mcg each of unlabelled estradiol, estriol, and estrone, and approximately 1000 dpm of [^14 C]-estradiol. The samples were vortexed, centrifuged at 500×g for 10 minutes, and the organic phase was transferred to a conical vial. Two additional extractions were performed on the residue in the same way. The pooled organic extracts were evaporated for subsequent thin-layer chromatography.
Ovarian proteins were precipitated by the addition of 5.0 ml of ethanol to the remaining aqueous phase. After an overnight incubation at 4° C., the samples were centrifuged at 1500×g for 10 minutes. The supernatant was discarded and the pellet was dissolved in 0.3N potassium hydroxide. Protein was determined according to the method of Bradford, Analytical Biochemistry, 72, 248 (1976).
The organic residue from each above extraction was redissolved in 9:1 (v/v) dichloromethane/methanol. The solution of each sample was applied to separate silica gel thin layer chromatography plates which contained a fluorescent indicator. The plates were developed in the first dimension with 160:38:1.5:0.5 (v/v/v/v) dichloromethane/ethyl acetate/methanol/acetic acid to within 3 cm of the top of the plate. After air-drying, the plate was developed in the second dimension with 180:19:1 (v/v/v) dichloromethane/methanol/ammonium hydroxide. The plate was air-dried and viewed under 254 nm UV light.
The visible spots were marked and the plates were sprayed with primulin (0.001% in 4:1 v/v acetone/water) according to the method of Wright, J. Chromatography, 59, 220 (1971) which allowed for the identification of additional steroids under 365 nm UV light. The spots were scraped from the plate using a glass wool plugged Pasteur pipet attached to a vacuum line. The steroids were eluted directly into scintillation vials by the addition of 0.2 ml of dichloromethane followed by two washes each of 2.0 ml of methanol. The organic solvent was evaporated and 10.0 ml of scintillation fluid (Beckman Ready Solv-NA) was added to the vials. Samples were analyzed by liquid scintillation spectrometry. Corrections were made based on the recoveries of the [^14 C]-steroid. Steroid concentrations are expressed as femtomoles per milligram protein.

[6] = rat ovarian microsomes, substrate (androstenedione) 0.1 μM, read-out: EC50 (concentration required to achieve 50% inhibition of aromatase activity)
[7] = Test I, 30 ppm in feed (approx. 3 mg/kg/day)
[8] = Test I, 300 ppm in feed (approx. 30 mg/kg/day)
[9] = Test II, 200 ppm in feed (approx. 20 mg/kg/day)

c1ccc(C(Cc2c[nH]cn2)c2ccccc2)cc1 [4(5)-(2,2-diphenylethyl)imidazole, 4(5)-(2,2-Diphenylethyl)imidazole]
EC50 [1]: 94 nM

CCC1(c2ccc(N)cc2)CCC(=O)NC1=O (centres unmarked) [aminoglutethimide]
effect in treatment of breast cancer [2]: beneficial effect

C[C@]12C=CC(=O)C=C1CC[C@@H]1[C@@H]2CC[C@]2(C)OC(=O)CC[C@@H]12 [testolactone]
effect in treatment of breast cancer [2]: beneficial effect

NC(=O)C(Cc1c[nH]cn1)(c1ccc(Cl)cc1)c1ccc(Cl)cc1 [α,α-Bis(4-chlorophenyl)-1H-imidazole-4(5)-propionamide hydrochloride]
EC50 [1, 6]: < 50 nM

NC(=O)C(Cc1c[nH]cn1)(c1ccccc1)c1ccccc1 [α,α-Diphenylimidazole-4-propionamide hydrochloride]
EC50 [1, 6]: 118 nM

N#CC(Cc1c[nH]cn1)(c1ccc(Cl)cc1)c1ccc(Cl)cc1 [α,α-bis(4-chlorophenyl)-imidazole-4(5)-propionitrile, maleic acid salt]
Mean Uterine Weight ([3]; Test I, 30 ppm in feed (approx. 3 mg/kg/day), 4 animals): 166.0 mg | Mean Uterine Weight ([3]; Test I, 300 ppm in feed (approx. 30 mg/kg/day), 5 animals, + p < 0.05 vs testosterone-treated control): 141.6 mg | Mean Tumor Area, Finish ([4]; 5 weeks, control 78.3 to 980.8, + p < 0.05 vs control): 389.7 mm^2 | Mean Tumor Area, Start ([4]; start of test (baseline)): 67.0 mm^2 | Mean Steroid Concentration, estradiol [5, 7]: 1.36 femtomoles per milligram of protein | Mean Steroid Concentration, estriol [5, 7]: 0.72 femtomoles per milligram of protein | Mean Steroid Concentration, estrone [5, 7]: 0.11 femtomoles per milligram of protein | Mean Steroid Concentration, estradiol [5, 8]: 1.06 femtomoles per milligram of protein | Mean Steroid Concentration, estriol [5, 8]: 0.23 femtomoles per milligram of protein | Mean Steroid Concentration, estrone ([5]; Test I, 300 ppm in feed (approx. 30 mg/kg/day), + p < 0.05 vs testosterone-treated control): 0.00 femtomoles per milligram of protein | EC50 [1, 6]: 62 nM

N#CC(Cc1c[nH]cn1)(c1ccccc1)c1ccccc1 [α,α-diphenylimidazole-4(5)-propionitrile, maleic acid salt]
EC50 [1, 6]: 165 nM

N#CC(Cc1c[nH]cn1)(c1ccccc1)c1cccc(Cl)c1 (stereo not drawn) [α-(3-chlorophenyl)-α-phenyl-imidazole-4(5)-propionitrile hydrochloride]
EC50 [1, 6]: 78 nM

N#CC(Cc1c[nH]cn1)(c1ccccc1)c1ccc(Cl)cc1 (stereo not drawn) [α-(4-chlorophenyl)-α-phenyl-imidazole-4(5)-propionitrile, maleic acid salt]
EC50 [1]: 72 nM

COc1ccc(C(C#N)(Cc2c[nH]cn2)c2ccccc2)cc1 (stereo not drawn) [α-(4-methoxyphenyl)-α-phenyl-imidazole-4(5)-propionitrile, maleic acid salt]
EC50 [1, 6]: 180 nM

N#CC(Cc1c[nH]cn1)(c1ccccc1)c1cccnc1 (stereo not drawn) [α-[1-imidazol-4(5)-ylmethyl]-α-phenyl-3-pyridineacetonitrile dihydrochloride]
EC50 [1, 6]: 560 nM

N#CC(Cc1c[nH]cn1)(c1ccccc1)c1ccc(C(F)(F)F)cc1 (stereo not drawn) [α-phenyl-α-(4-trifluoromethylphenyl)-1H--imidazole-4(5)-propionitrile]
Mean Uterine Weight ([3]; Test II, 200 ppm in feed (approx. 20 mg/kg/day), 5 animals, + p < 0.05 vs testosterone-treated control): 142.2 mg | Mean Steroid Concentration, estradiol [5, 9]: 1.01 femtomoles per milligram of protein | Mean Steroid Concentration, estriol [5, 9]: 0.31 femtomoles per milligram of protein | Mean Steroid Concentration, estrone [5, 9]: 0.00 femtomoles per milligram of protein | EC50 [1, 6]: 73 nM

Source: US4605661A, “Aromastase inhibiting α,α-diarylimidazole-4(5)-propionitriles, α,α-diarylimidazole-4(5)-propionamides, and 4(5)-(2,2-diarylethyl)imidazoles” (Eli Lilly and Company, priority 1984, dated 1986)
